# Laboratory results from PubChem BioAssay AID179 (DTP/NCI, 2004).
# “And” between values parts separate entries of the source, which are not always exact repeats. Equal values may be shown once. The source made the active and inactive calls.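 How the source made its calls: active means compounds giving half or more protection of infected cells from virus-caused growth loss, again on retest; inactive means the rest.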 Where a SMILES comes first, the peptide text is derived from it. The star is where a group is joined. Boc = CC(C)(C)OC(=O)*; OBn = c1ccc(CO*)cc1
# System: CEM cells HIV-1 protection, formazan growth assay
# Assay: NCI AIDS Antiviral Assay
# Conditions: for IC50: measured here: growth of uninfected CEM cells
# Outline: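 Protection of CEM cells against HIV-1 measured as cell growth via soluble formazan read-out, with five concentrations tested on both infected and uninfected cells; failure to protect may reflect toxicity.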
Structure (SMILES),EC50 [µM],IC50,outcome
O=P(Oc1ccccc1)(Oc1ccccc1)N1CCOCC1,> 200,170 µM,–
CN(C)CCn1c2c(c3ccccc31)CCc1ccccc1-2,> 200,15.5 µM,–
O=c1[nH]c(Cc2ccccc2)nc2c1sc1nc3ccccc3n12,> 200,> 200 µM,–
COC(=O)c1cc(C(=CCCO)c2cc(Cl)c(OC)c(C(=O)OC)c2)cc(Cl)c1OC,> 200,24.5 µM,–
CC1=C(C(=O)Nc2cccc(C(F)(F)F)c2)C(c2ccc(O)cc2)C(C(=O)Nc2cccc(C(F)(F)F)c2)=C(C)N1,> 32.4,> 32.4 µM,–
CC(C)N(C(=O)C12C3C4C5C3C1(C(=O)N(C(C)C)C(C)C)C5C42)C(C)C (centres undefined),> 100,> 100 µM,–
O=[N+]([O-])c1ccc2c(c1)C1=C(CO2)Cc2ccccc2O1,–,–,inactive
CC1=Nc2cc(C)c(C)cc2NC(=O)C1,> 200,> 200 µM,–
CCOC(C)O[C@H]1C(=O)OCC1(C)C (some centres undefined),77.6,> 200 µM,–
CCN(CC)CCCCCCCNc1c2ccc(Cl)cc2nc2ccc(OC)cc12,> 2,0.427 µM,–
CSCCC(N)C(=O)NCCS(=O)(=O)O (centres undefined),> 200,> 200 µM,–
CC(=O)OC(=C(C#N)C#N)c1nccnc1C(=O)O,> 200,> 200 µM,–
CN(C)NC(=O)/C(=C/c1ccc(Cl)cc1)NC(=O)c1ccccc1,> 145,> 145 µM,–
O=C(O)c1ccccc1/C=N\NC1=NCCN1,69.2,115 µM,–
CC(OCc1ccccc1)C1OC2(C)CCC(=O)C1O2 (centres undefined),–,–,inactive
O=[N+]([O-])c1ccc(C2OC3CC4C5CCCC5C3C4O2)cc1 (centres undefined),> 200,19.5 µM,–
COc1cc2ccc3c4cc(OC)c(OC(C)C)cc4cnc3c2cc1OC,–,–,inactive
N#CCC(=O)N/N=C1/C(=O)N(c2ccc(Cl)cc2)C(=O)C(=O)C1c1nc2ccccc2s1 (centres undefined),–,–,inactive
COC1N(C2CC(F)C(CO)O2)C(=O)NC(=O)C1(C)I (centres undefined),0.00339,57.5 µM and 6.17 µM,active
C[C@]12CCC3[C@@H](CCC4(C=N)CC(=O)CC[C@]34C)C1CC[C@@H]2O (some centres undefined),–,–,inactive
Cc1ccc2c(c1)P(=O)(O)c1cc(C)ccc1S2(=O)=O,> 200,> 200 µM,–
CN1c2ccccc2SC2C(c3ccccc3)=NOC21 (centres undefined),> 200,45.7 µM,–
COC(OC)[C@@H]1OC[C@H](n2ccc(=O)[nH]c2=O)[C@H]1O,> 200,> 200 µM,–

Structure (SMILES),EC50 [µM],IC50,outcome
S=P(N1CC1)(N1CC1)N1CC1,> 1320,3.16 µM,–
O=c1/c(=C/c2cccc([N+](=O)[O-])c2)sc2nc3ccccc3n12,–,–,inactive
OC1(c2ccc(Cl)cc2)c2ccccc2-c2nc3ccccc3n21 (centres undefined),> 200,174 µM,–
Cc1cc(N(CCC#N)CCC#N)ccc1N=Nc1ccccc1[N+](=O)[O-],> 14.5,> 14.5 µM,–
C[C@@H]1C[C@H]2[C@@H]3CCC4=CC(=O)CC[C@]4(C)[C@@]3(F)[C@@H](O)C[C@]2(C)[C@@]1(C)O,> 200,87.1 µM,–
CSC1CC2C(CC1(C)O)C2(C)C (centres undefined),> 200,162 µM and > 200 µM,–
CC1(C)N([O-])[N+](=O)C1(C)C,> 200,> 200 µM,–
CN(C)c1ccc(/C=C2\CCc3ccccc3C2=O)cc1Br,> 10.7,> 10.7 µM,–
CCOP(C)(=O)C(Cc1c[nH]c2ccccc12)C(=O)O (centres undefined),> 200,> 200 µM,–
O=S(Nc1ccccc1)c1ccc(-c2ccccc2)cc1 (centres undefined),> 200,> 200 µM,–
COc1ccc([C@]23CCC4(OCC(C)(C)CO4)[C@H]4CON(O[C@H](O[C@@H]5CCCCC5C(C)(C)c5ccccc5)C2)[C@@H]43)cc1OC (some centres undefined),> 50.1,> 50.1 µM,–
CC(NC(=O)C(NC(=O)OC(C)(C)C)C(C)C)C(=O)N1CCCC1C(=O)NCC(=O)NC(C(=O)NCC(=O)OCc1ccccc1)C(C)C (centres undefined) (Boc-VAPGVG-OBn; configuration not given here),> 200,> 200 µM,–
c1cc2nnc1SCCSCCCSCCS2,> 200,182 µM,–
Clc1ccc(Nc2nnc(CNc3ccc(-c4nnc(Nc5ccc(Cl)cc5)o4)cc3)o2)cc1,> 200,1.23 µM,–
CN(C)c1ccc(C2=C([O-])c3cc(-[n+]4ccccc4)ccc3C2=O)cc1,> 200,178 µM,–
NC(=O)CN1CCN(CCCN2c3ccccc3Sc3ccc(Cl)cc32)CC1,> 200,30.9 µM,–
Cc1cc(O)c(C(C)C)cc1NC(=O)Nc1cccc2ccccc12,> 56.2,40.7 µM,–
C[C@H]1SC(c2ccc(Cl)cc2Cl)N(NC(=O)c2ccncc2)C1=O (some centres undefined),> 200,33.9 µM,–
NC(=O)c1ncn(C2OC(CO)C(O)C2O)c1NC(=S)NC(=O)c1ccccc1 (centres undefined),> 589,> 589 µM,–
COc1ccc(/C=C/C(=O)c2ccc(Br)cc2)cc1,> 200,33.1 µM,–
CN(C)C[C@H]1C2C=CC(C2)[C@@H]1CO (some centres undefined),> 490,> 490 µM,–
[B]C(=O)NC(CC(C)C)C(=O)NC1c2ccsc2C(=O)C1O (centres undefined) (tested in a mixture with another compound),> 200,> 200 µM,–
O=[C]=[Fe+].O=[C]=[Fe].[C-]1=CCC=C1.[CH-]=O.[CH-]=O.c1cc[cH-]c1,> 200,21.4 µM,–

Structure (SMILES),EC50 [µM],IC50,outcome
CCOc1nc(C(=O)O)cc2ccsc12,> 589,501 µM,–
Cc1cc(Cl)ccc1NC(=O)CCCC(=O)C1CCC/C1=N\NC(=O)CC#N (centres undefined),> 64.6,> 64.6 µM,–
Cc1ccc2c(c1)c1ccc3c(c1n2C)C(=O)C=CC3=O,> 100,2.45 µM,–
C=C1CC[N+]2(C)CCCC12 (centres undefined),> 1150,> 1150 µM,–
O=C(O)C[n+]1ccccc1,148,> 200 µM,–
COC(=O)[C@@H](NC(=O)N(CCC#N)CCNc1ccccc1)C(C)C,> 200,> 200 µM,–
CC1C(=O)C(C)C(c2ccco2)N(N=O)C1c1ccco1 (centres undefined),> 234,132 µM,–
COc1ccc(NC(=O)CC(=O)NNC(Sc2ccccc2)c2cc(N=Nc3ccc(Br)cc3)ccc2O)cc1 (centres undefined),–,–,inactive
COc1ccc2c(c1)CCC(c1ccccc1)=C2c1ccc(OCCN2CCCC2)cc1,> 200,3.72 µM,–
c1ccc(C2=NOCC3(c4ccccc4)OC23)cc1 (centres undefined),> 31.6,12 µM,–
O=C(CBr)Nc1ccccc1-c1ccccc1NC(=O)CBr,–,–,inactive
CC1=CCC2(C#N)CCC1C2=O (centres undefined),> 251,> 251 µM,–
CC(C)(C)C1=C(Br)C(Br)(C(C)(C)C)OP1(=O)c1ccccc1 (centres undefined),> 200,> 200 µM,–
CC(C)(C)OC(=O)N[C@H]1CC(=O)c2ccccc2N(CC(=O)O)C1=O,> 251,> 251 µM,–
Cc1c(C)c2cc3c(=O)c(CCl)coc3c(C)c2oc1=O,> 17,> 17 µM,–
Cc1ccc(/C=C2/NC(=S)SC2=O)cc1,> 200,170 µM,–
CCC[CH2][Sn]1([CH2]CCC)[O]CC(CN2CCOCC2)[O]1 (centres undefined),> 4.57,0.295 µM,–
COC(=O)CC1CC2(C(=O)OC)c3[nH]c4ccccc4c3CCN2C1=O (centres undefined),> 224,> 224 µM,–
CCOC(=O)C1(c2ccc(O)c(O)c2)CCN(C)CC1,> 794,380 µM,–
Clc1nc(Cl)nc(Nc2cccc3ccccc23)n1,> 200,107 µM,–
Nc1nc(-c2ccccc2)nc(N)c1N=O,> 200,2.57 µM,–
Cc1cc(Br)c(O)c(-c2cscn2)c1,> 200,11.2 µM,–
O=C1/C(=C\c2cccc(Oc3ccccc3)c2)S(=O)(=O)C(c2ccccc2)N1Cc1ccccc1 (centres undefined),> 20,> 20 µM,–

Structure (SMILES),EC50 [µM],IC50,outcome
Nc1cc(N)[nH]c(=S)n1,–,–,inactive
CCOC(=O)NC(Nc1ccc(F)c(F)c1)(C(=O)OCC)C(F)(F)F (centres undefined),> 200,> 200 µM,–
COC(=O)C1=C(C(=O)OC)N(c2ccc(OC)cc2[N+](=O)[O-])C(c2ccc(C)cc2)=CC1c1ccc(OC)cc1OC (centres undefined),> 100,3.02 µM,–
CCC(O)(Cc1ccccc1)C(C(=O)O)c1ccccc1 (centres undefined),> 457,339 µM,–
Cc1ncc[pH]1 (centres undefined),> 138,> 138 µM,–
C=C1CCCCCCCCCCC1S(=O)c1ccccc1 (centres undefined),> 200,12 µM,–
CC(C)OP(=O)(CP(=O)(OC(C)C)OC(C)C)CP(=O)(OC(C)C)OC(C)C,> 537,93.3 µM,–
O=C1C(Cl)C(c2ccc(Cl)cc2)N1n1cnc2ccccc2c1=O (centres undefined),> 18.6,> 18.6 µM,–
FC(F)(F)c1ccc2c(-c3cc[nH]c3)ccnc2c1,> 200,15.5 µM,–
N=C1SCC(=O)N1CCN1C(=N)SCC1=O,> 79.4,> 79.4 µM,–
CCOC(=O)NNC(=O)NC12CC3CC(CC(C3)C1)C2,–,–,inactive
O=COC1CC(n2ccc(=O)[nH]c2=O)OC1CO (centres undefined),> 4570,263 µM,–
COC(=O)C1=CN=C(C(=O)OC)NN1,> 1260,537 µM,–
CCOC(=O)/C(C(=S)Nc1ccccc1)=C(/N)N1CCCC1,> 200,53.7 µM,–
COC1=C2C[C@@H](C)C[C@@H](OC)[C@@H](O)[C@H](C)/C=C(\C)[C@@H](OC(N)=O)[C@H](OC)/C=C\C=C(/C)C(=O)NC(=CC1=O)C2=O,> 1.15,0.0813 µM,–
O=C1c2cc3c(cc2CC12Cc1cc4c(cc1C2)CCC4)CCC3,> 200,> 200 µM,–
Nc1nc(Cl)n2nc[n+](C3C=CC(=O)CC3)c2n1 (centres undefined),–,–,inactive
CCN(CC)CCOc1ccc(C(=C2CCCCC2)c2ccc(OCCN(CC)CC)cc2)cc1,> 38.9,2.19 µM,–
C=CCC(C(=O)OCC)C1NCCc2c1[nH]c1ccccc21 (centres undefined),> 45.7,> 45.7 µM,–
NC(CS)=NCC1C2CC3CC(C2)CC1C3 (centres undefined),> 200,33.1 µM,–
COc1nc(NC2OC(COC(C)=O)C(OC(C)=O)C(OC(C)=O)C2OC(C)=O)c(N=CC=Nc2c(NC3OC(COC(C)=O)C(OC(C)=O)C(OC(C)=O)C3OC(C)=O)nc(OC)n(C)c2=O)c(=O)n1C (centres undefined),–,–,inactive
